Reference: publication PMC2806265, “Divergence of allosteric effects of rapacuronium on binding and function of muscarinic receptors” (BMC Pharmacology, 2009)

Tests used:
[1] = target: T1, M3 muscarinic receptor (Homo sapiens, UniProt P20309); format: biochemical; conditions: CHO-M3 membranes
T1 construct: host or cells: CHO cells, stably transfected; membranes
From the text: Time course of association(6) [drawing 6]
y, radioligand binding at time x; kobs, observed rate of association; equilibrium binding Beq = Bottom + Span.

[2] = target: T2, M2 muscarinic receptor (Homo sapiens, UniProt P08172); assay: [3H]NMS saturation binding
T2 sequence (P08172 1-466): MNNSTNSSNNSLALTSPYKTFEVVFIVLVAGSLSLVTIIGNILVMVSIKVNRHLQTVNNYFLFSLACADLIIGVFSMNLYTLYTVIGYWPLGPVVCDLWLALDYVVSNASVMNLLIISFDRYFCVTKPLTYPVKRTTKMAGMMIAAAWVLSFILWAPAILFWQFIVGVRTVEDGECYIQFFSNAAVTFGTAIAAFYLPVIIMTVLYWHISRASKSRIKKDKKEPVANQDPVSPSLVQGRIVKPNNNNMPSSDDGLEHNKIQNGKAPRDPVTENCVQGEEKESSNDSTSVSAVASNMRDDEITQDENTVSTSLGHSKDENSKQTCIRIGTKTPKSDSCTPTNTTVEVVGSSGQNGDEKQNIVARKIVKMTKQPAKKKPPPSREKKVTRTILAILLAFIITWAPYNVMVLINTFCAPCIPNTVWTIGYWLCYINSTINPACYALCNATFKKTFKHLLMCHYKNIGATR
From the text: (§1) BMAX, maximum binding capacity; KD, equilibrium dissociation constant.

[3] = target: T2, M2 muscarinic receptor; assay: Effect of rapacuronium on low-affinity ACh binding ([3H]NMS + GTPγS + ACh); parameters: host or cells: CHO cells, stably transfected; membrane preparation
From the text: Data are expressed as percent of specific binding in the absence of rapacuronium. […] Data are means ± SE from 3 independent experiments performed in quadruplicates. Curves are fits of Eq. 3 (circles) and Eq. 4 (squares and triangles) to data prior to normalization.

[4] = target: T3, M5 muscarinic receptor (Homo sapiens, UniProt P08912); assay: [3H]NMS saturation binding
T3 sequence (P08912 1-532): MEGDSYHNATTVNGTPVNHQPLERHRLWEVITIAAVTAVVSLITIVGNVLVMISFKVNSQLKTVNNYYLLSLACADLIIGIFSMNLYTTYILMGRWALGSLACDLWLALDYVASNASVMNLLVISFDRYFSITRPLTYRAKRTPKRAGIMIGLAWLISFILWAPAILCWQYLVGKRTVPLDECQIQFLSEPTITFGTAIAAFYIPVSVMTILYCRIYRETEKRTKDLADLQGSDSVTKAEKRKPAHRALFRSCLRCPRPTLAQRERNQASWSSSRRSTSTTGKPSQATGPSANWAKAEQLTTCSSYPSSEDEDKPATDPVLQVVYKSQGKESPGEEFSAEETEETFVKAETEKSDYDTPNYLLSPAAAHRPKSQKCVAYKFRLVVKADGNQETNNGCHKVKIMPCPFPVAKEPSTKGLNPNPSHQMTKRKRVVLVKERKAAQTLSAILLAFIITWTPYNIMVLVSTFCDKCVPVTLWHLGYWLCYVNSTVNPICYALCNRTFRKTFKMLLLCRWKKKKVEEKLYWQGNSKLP
From the text: as §1

T1 sequence (P20309 whole entry): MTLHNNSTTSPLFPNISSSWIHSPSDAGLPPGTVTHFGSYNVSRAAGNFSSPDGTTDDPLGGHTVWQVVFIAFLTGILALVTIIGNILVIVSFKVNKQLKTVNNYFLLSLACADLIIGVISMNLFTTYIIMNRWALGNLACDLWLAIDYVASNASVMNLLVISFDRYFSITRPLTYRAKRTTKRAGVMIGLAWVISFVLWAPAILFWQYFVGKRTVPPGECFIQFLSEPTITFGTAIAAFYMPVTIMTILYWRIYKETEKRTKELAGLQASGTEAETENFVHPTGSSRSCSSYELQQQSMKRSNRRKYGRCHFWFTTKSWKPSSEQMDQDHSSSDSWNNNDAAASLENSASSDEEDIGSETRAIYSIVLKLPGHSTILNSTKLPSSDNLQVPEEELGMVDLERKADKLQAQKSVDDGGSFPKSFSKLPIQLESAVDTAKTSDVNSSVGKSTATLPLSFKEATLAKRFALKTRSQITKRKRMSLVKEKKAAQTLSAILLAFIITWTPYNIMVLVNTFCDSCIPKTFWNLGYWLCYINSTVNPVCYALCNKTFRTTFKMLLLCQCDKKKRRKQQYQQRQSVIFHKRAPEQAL

## C=CC[N+]1([C@H]2C[C@H]3[C@@H]4CC[C@H]5C[C@H](OC(C)=O)[C@@H](N6CCCCC6)C[C@]5(C)[C@H]4CC[C@]3(C)[C@H]2OC(=O)CC)CCCCC1 [rapacuronium]
[1]; 1 μM rapacuronium alone
  effect on rate of [^35S]GTPγS binding: slightly decreased
[1]; 10 μM ACh + 1 μM rapacuronium
  increase in [^35S]GTPγS binding at 5 min incubation: ~5 fold
  observed rate (kobs) of [^35S]GTPγS binding: 0.166 ± 0.013 min⁻¹
[1]; 10 μM ACh with 1 μM rapacuronium
  estimated [^35S]GTPγS equilibrium binding (Beq): 9,980 ± 120 cpm per well
[2]; + 10 μM rapacuronium
  BMAX of [^3H]NMS: 1.62 ± 0.14 fmol/μg of protein
[2]; + 100 μM rapacuronium
  BMAX of [^3H]NMS: 1.66 ± 0.14 fmol/μg of protein
[3]; M2, negative value = negative cooperativity
  pβ, cooperativity with ACh low affinity binding: -1.52 ± 0.06
[3]; read-out: pKA of rapacuronium (converted)
  Kd: 2.75 µM
[4]; + 10 μM rapacuronium
  BMAX of [^3H]NMS: 1.53 ± 0.15 fmol/μg of protein
[4]; + 100 μM rapacuronium
  BMAX of [^3H]NMS: 1.33 ± 0.13 fmol/μg of protein
